{"source": "ChEMBL document CHEMBL1177720", "about": "“Selective hexapeptide agonists and antagonists for human complement C3a receptor” (J Med Chem, 2010)", "key": {"[1]": {"target": "T1, C5a anaphylatoxin chemotactic receptor 1 (Homo sapiens) (UniProt P21730)", "T1 sequence (whole entry)": "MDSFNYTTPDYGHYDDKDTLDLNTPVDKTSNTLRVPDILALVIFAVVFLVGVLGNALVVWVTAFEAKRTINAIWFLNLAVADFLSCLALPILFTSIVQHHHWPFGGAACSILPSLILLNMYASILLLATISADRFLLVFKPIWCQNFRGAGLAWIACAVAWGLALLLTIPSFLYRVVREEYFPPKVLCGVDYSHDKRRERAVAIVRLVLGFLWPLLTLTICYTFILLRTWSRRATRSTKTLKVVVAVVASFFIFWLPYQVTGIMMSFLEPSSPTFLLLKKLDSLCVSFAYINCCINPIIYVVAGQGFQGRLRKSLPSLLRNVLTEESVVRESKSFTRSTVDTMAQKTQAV", "experiment": "Displacement of […] from C5a receptor in human PBMC at 1 mM by scintillation counting"}, "[2]": {"target": "T2, C3a anaphylatoxin chemotactic receptor (Homo sapiens) (UniProt Q16581)", "T2 sequence (whole entry)": "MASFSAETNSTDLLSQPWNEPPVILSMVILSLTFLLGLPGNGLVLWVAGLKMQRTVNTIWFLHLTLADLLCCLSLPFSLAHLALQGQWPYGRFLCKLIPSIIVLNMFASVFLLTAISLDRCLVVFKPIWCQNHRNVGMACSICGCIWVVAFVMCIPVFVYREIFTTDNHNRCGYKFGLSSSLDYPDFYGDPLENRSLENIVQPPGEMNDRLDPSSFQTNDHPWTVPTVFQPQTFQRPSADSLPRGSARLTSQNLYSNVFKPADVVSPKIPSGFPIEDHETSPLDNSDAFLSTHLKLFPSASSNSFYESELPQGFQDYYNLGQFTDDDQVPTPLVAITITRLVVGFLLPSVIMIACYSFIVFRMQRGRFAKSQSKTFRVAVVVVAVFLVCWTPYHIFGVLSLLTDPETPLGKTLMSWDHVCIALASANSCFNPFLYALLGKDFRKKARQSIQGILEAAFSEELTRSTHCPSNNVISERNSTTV", "experiment": "Agonist activity at human C3a receptor in human U937 cells assessed as induction of intracellular calcium release at 1 mM", "assay_type": "functional, cell-based", "details": "U-937"}, "[3]": {"target": "T3, C3a anaphylatoxin chemotactic receptor (Homo sapiens, UniProt Q16581)", "T3 sequence (Q16581 whole entry)": "T2 sequence (whole entry)", "experiment": "Displacement of [125I-C3a] from C3a receptor in human PBMC by scintillation counting", "details": "read-out: IC50"}, "[4]": {"target": "T3, C3a anaphylatoxin chemotactic receptor", "experiment": "Antagonist activity at human C3a receptor in human U937 cells assessed as inhibition of intracellular calcium mobilization", "assay_type": "functional, cell-based, U-937"}, "[5]": {"target": "T2, C3a anaphylatoxin chemotactic receptor (Homo sapiens)", "experiment": "Agonist activity at human C3a receptor in human U937 cells assessed as induction of intracellular calcium release at 10 uM", "assay_type": "functional, cell-based", "details": "U-937"}, "[6]": {"species": "Homo sapiens", "experiment": "Selectivity for human C3a receptor over human C5a receptor"}, "[7]": {"target": "T2, C3a anaphylatoxin chemotactic receptor (Homo sapiens)", "experiment": "Agonist activity at human C3a receptor in human U937 cells assessed as induction of intracellular calcium release at 100 uM", "assay_type": "functional, cell-based", "details": "U-937"}}, "note": "The source made the active and inactive calls. The rule behind the calls is not given here."}
{"smiles": "N=C(N)NCCC[C@H](NC(=O)COCC(c1ccccc1)c1ccccc1)C(=O)O", "values": [{"measurement": "Activity", "setting": "[1]", "result": "inactive"}, {"measurement": "Activity", "setting": "[2]", "result": "inactive"}, {"measurement": "IC50", "setting": "[3]", "result": 140, "unit": "nM"}, {"measurement": "IC50", "setting": "[4]", "result": 1300, "unit": "nM"}, {"measurement": "Activity", "setting": "[5]", "result": "inactive"}]}
{"smiles": "CC(C)C[C@H](NC(=O)[C@@H](N)Cc1ccccc1)C(=O)N[C@H](C(=O)N[C@@H](CC1CCCCC1)C(=O)N[C@@H](C)C(=O)N[C@@H](CCCNC(=N)N)C(=O)O)[C@@H](C)O", "values": [{"measurement": "Activity", "setting": "[1]", "result": "inactive"}, {"measurement": "Activity", "setting": "[2]", "result": "inactive"}, {"measurement": "Selectivity ratio", "setting": "[6]", "result": "> 100"}, {"measurement": "IC50", "setting": "[3]", "result": 238, "unit": "nM"}, {"measurement": "IC50", "setting": "[4]", "result": 240, "unit": "nM"}, {"measurement": "Activity", "setting": "[7]", "result": "inactive"}]}
